From patent US20220017877A1, “BILIRUBIN OXIDASE ACTIVITY IMPROVING METHOD, AND BILIRUBIN OXIDASE PRODUCT” (OZEKI CORPORATION, priority 2018, published 2022)

Assay: ABTS initial absorbance (A436) reduction rate (Test Example 3)
Type: physicochemical
Details: in one minute at 25° C.; 1 mM (single compound) or 0.011 g nitrogen element in 100 mL (composition); pH 8.5
Excerpt: In the present specification, the absorbance of a solution containing ABTS (ABTS solution), at a wavelength of 436 nm, is defined as an ABTS initial absorbance (A436). In the present specification, the ABTS initial absorbance (A436) reduction rate (%) of the activity improving agent is defined to be a reduction rate (%) of the absorbance of a mixed solution, which contains the above ABTS solution and the above activity improving agent, at a wavelength of 436 nm in one minute, with respect to the ABTS initial absorbance (A436) (100%). Note that the ABTS solution is a solution in which the concentration of ABTS is adjusted such that the absorbance (A436) at a wavelength of 436 nm is approximately 1.3 at an optical path length of 1.0 cm. The value “approximately 1.3” here is intended to mean a value in a range in which 1.3 is obtained by rounding the value to the first decimal place. Test Examples described later will explain specific methods for measuring the absorbance (A436) of the ABTS solution at a wavelength of 436 nm and the ABTS initial absorbance (A436) reduction rate (%) of the activity improving agent. ABTS is an abbreviation for 2,2′-azinobis(3-ethylbenzothiazoline-6-sulfonic acid).
In the present activity improving method, when the ABTS initial absorbance (A436) reduction rate (%) of the activity improving agent is measured, the concentration of the activity improving agent in the ABTS solution for measurement is set as follows: (a) the concentration is set to 1 mM, when the molecular weight of the activity improving agent is evident as in a case where the activity improving agent is made of a single compound; and (b) when the activity improving agent is a substance which is made of a composition having an inevident molecular weight, the content of nitrogen element is used as a reference and the concentration is set such that the content of nitrogen element derived from the activity improving agent is 0.011 g in 100 mL of the ABTS solution for measurement. Note that, in the above (b), the content of nitrogen element derived from the activity improving agent in the ABTS solution is a value calculated by the Kjeldahl method.
The following describes a specific evaluation method. ABTS employed was an ABTS manufactured by Roche Diagnostics K.K. Further, the ABTS was dissolved in a 50 mM glycine-KOH (pH 8.5) buffer so that the concentration of the ABTS became 2.0 mg/mL. An ABTS solution was thus prepared. The absorbance of the ABTS solution at a wavelength of 436 nm (ABTS initial absorbance (A436)) was measured at an optical path length of 1.0 cm, by using a molecular absorption spectrometer Spectra Max Plus 384 (manufactured by Molecular Devices Japan K.K.). As a result the absorbance was approximately 1.3. Next, 5 μL of an activity improving agent solution or a comparative substance solution was added to 195 μL of the ABTS solution, so that a reaction solution for evaluating ABTS (hereinafter, also referred to as “reaction solution A”) was prepared. […]

Compound | A436 reduction rate (%)
O=c1[nH]c(=O)c2[nH]c(=O)[nH]c2[nH]1 [Uric acid, uric acid] | 71.49
O=C1O[C@H]([C@@H](O)CO)C(O)=C1O [L-ascorbic acid] | 87.81
